Laboratory results published in patent US7371773B2, “Breast cancer resistance protein (BCRP) inhibitor” (Kabushiki Kaisha Yakult Honsha, priority 2003, dated 2008).
Converted amounts (≈) assume the structure as drawn.

System: A549/SN-38-4 cell line
Assay: Overcoming anticancer drug resistance of A549/SN-38-4 cell line
Type: cell-based, human
Conditions: not given
Procedure: The effect of a diphenylacrylonitrile derivative on BCRP-mediated anticancer drug resistance was studied by use of the human lung cancer A549/SN-38-4 cell line, which had acquired anticancer drug resistance through BCRP expression. The human lung cancer A549 cell line or the A549/SN-38-4 cell line was suspended in 10% FBS/Ham's F-12, and the resultant suspension was inoculated into a 96-well microplate, followed by culturing at 5% CO2 and 37° C. overnight (2×10^3 cells/50 μL/well). Thereafter, a 10% FBS/Ham's F-12 solution (25 μL) containing a diphenylacrylonitrile derivative and SN-38 or mitoxantrone was added to each of the wells, followed by culturing at 5% CO2 and 37° C. for 48 hours. After completion of culturing, the number of viable cells was counted by use of TetraColor ONE according to the attached instruction manual. […] The greater the relative resistance value, the higher the level of acquired resistance.

| Compound | Resistance overcoming effect EC50 [µg/mL] |
| --- | --- |
| (Z)-2-(3,4-dimethoxyphenyl)-3-[4-(6-phospho-β-D-glucopyranosyl)-phenyl]-acrylonitrile [Compound 73] | 1.0 |
| (Z)-2-(3,4-dimethoxyphenyl)-3-(4-β-D-glucopyranosyl-phenyl)-acrylonitrile [Compound 44] | 0.024 |
| COc1ccc(/C(C#N)=C/c2ccc(OP(=O)(O)O)cc2)cc1OC [Compound 70, mono-{4-[(Z)-2-cyano-2-(3,4-dimethoxy-phenyl)-vinyl]-phenyl} phosphate] | 0.24 |

Same assay, conditions: Homo sapiens, A549; SN-38 resistance, concentration for 50% reduction of relative resistance value, 48 hours; read-out: Resistance overcoming effect EC50

| Compound | EC50 [µg/mL] |
| --- | --- |
| COc1ccc(/C(C#N)=C/c2ccc(N)cc2)cc1OC [Compound 34, (Z)-3-(4-amino-phenyl)-2-(3,4-dimethoxy-phenyl)-acrylonitrile] | 0.079 (≈ 0.282 µM) |
| COc1ccc(/C(C#N)=C/c2ccc(O)c([N+](=O)[O-])c2)cc1OC [Compound 45, (Z)-2-(3,4-dimethoxy-phenyl)-3-(4-hydroxy-3-nitro-phenyl)-acrylonitrile] | 0.13 (≈ 0.398 µM) |
| COCCOCOc1ccc(/C(C#N)=C/c2ccc(OC)c(OC)c2)cc1 [Compound 47, (Z)-3-(3,4-dimethoxy-phenyl)-2-[4-(2-methoxy-ethoxymethoxy)-phenyl]-acrylonitrile] | 0.053 (≈ 0.143 µM) |
| COc1ccc(/C(C#N)=C/c2ccc(Cl)c([N+](=O)[O-])c2)cc1OC [Compound 38, (Z)-3-(4-chloro-3-nitro-phenyl)-2-(3,4-dimethoxy-phenyl)-acrylonitrile] | 0.037 (≈ 0.107 µM) |
| COc1ccc(/C(C#N)=C/c2c(F)ccc(F)c2F)cc1OC [Compound 29, (Z)-2-(3,4-dimethoxy-phenyl)-3-(2,3,6-trifluoro-phenyl)-acrylonitrile] | 0.1 (≈ 0.313 µM) |
| COc1ccc(/C=C(\C#N)c2ccc(OC(C)=O)cc2)cc1OC [Compound 61, 4-[(Z)-1-cyano-2-(3,4-dimethoxy-phenyl)-vinyl]phenyl acetate] | 0.024 |
| CCOc1ccc([N+](=O)[O-])cc1/C=C(\C#N)c1ccc(OC)c(OC)c1 [Compound 52, (Z)-2-(3,4-dimethoxy-phenyl)-3-(2-ethoxy-5-nitro-phenyl)-acrylonitrile] | 0.024 (≈ 0.0677 µM) |
| COc1ccc(/C(C#N)=C/c2cc([N+](=O)[O-])ccc2F)cc1OC [Compound 39, (Z)-2-(3,4-dimethoxy-phenyl)-3-(2-fluoro-5-nitro-phenyl)-acrylonitrile] | 0.027 (≈ 0.0822 µM) |
| COc1ccc(/C=C(\C#N)c2ccc(O)cc2)cc1OC [Compound 48, (Z)-3-(3,4-dimethoxy-phenyl)-2-(4-hydroxy-phenyl)-acrylonitrile] | 0.013 (≈ 0.0462 µM) |
| COc1ccc(/C(C#N)=C/c2cc([N+](=O)[O-])ccc2O)cc1OC [Compound 76, (Z)-2-(3,4-dimethoxy-phenyl)-3-(2-hydroxy-5-nitro-phenyl)-acrylonitrile] | 0.82 (≈ 2.51 µM) |
| COc1ccc(/C(C#N)=C/c2ccc(F)cc2F)cc1OC [Compound 23, (Z)-3-(2,4-difluoro-phenyl)-2-(3,4-dimethoxy-phenyl)-acrylonitrile] | 0.048 (≈ 0.159 µM) |
| N#C/C(=C\c1ccc(O)cc1)c1cc(C(F)(F)F)cc(C(F)(F)F)c1 [Compound 49, (Z)-2-(3,5-bis-trifluoromethyl-phenyl)-3-(4-hydroxy-phenyl)-acrylonitrile] | 0.2 (≈ 0.56 µM) |
| COc1ccc(/C(C#N)=C/c2ccc(OC(=O)CCC(=O)Oc3ccc(/C=C(\C#N)c4ccc(OC)c(OC)c4)cc3)cc2)cc1OC [Compound 43, bis-{4-[(Z)-2-cyano-2-(3,4-dimethoxy-phenyl)-vinyl]-phenyl} succinate] | 0.12 |
| CCOC(=O)CCCCCCOc1ccc(/C=C(\C#N)c2ccc(OC)c(OC)c2)cc1 [Compound 66, ethyl 7-[4-[(Z)-2-cyano-2-(3,4-dimethoxy-phenyl)-vinyl]-phenoxy]-heptanoate] | 0.71 (≈ 1.62 µM) |
| COc1ccc(/C(C#N)=C/c2ccc(C=O)cc2)cc1OC [Compound 62, (Z)-2-(3,4-dimethoxy-phenyl)-3-(4-formyl-phenyl)-acrylonitrile] | 0.11 (≈ 0.375 µM) |
| COc1ccc(/C(C#N)=C/c2cc(OC)c(O)c(OC)c2)cc1OC [Compound 79, (Z)-2-(3,4-dimethoxy-phenyl)-3-(4-hydroxy-3,5-dimethoxy-phenyl)-acrylonitrile] | 0.017 (≈ 0.0498 µM) |
| COc1ccc(/C(C#N)=C/c2cc(F)ccc2F)cc1OC [Compound 24, (Z)-3-(2,5-difluoro-phenyl)-2-(3,4-dimethoxy-phenyl)-acrylonitrile] | 0.0073 (≈ 0.0242 µM) |
| COc1ccc(/C(C#N)=C/c2cc(F)c(F)cc2F)cc1OC [Compound 30, (Z)-2-(3,4-dimethoxy-phenyl)-3-(2,4,5-trifluoro-phenyl)-acrylonitrile] | 0.041 (≈ 0.128 µM) |
| COC(=O)c1ccc(/C=C(\C#N)c2ccc(OC)c(OC)c2)cc1 [Compound 36, methyl 4-[(Z)-2-cyano-2-(3,4-dimethoxy-phenyl)-vinyl]-benzoate] | 0.2 (≈ 0.619 µM) |
| COc1ccc(/C(C#N)=C/c2cc(F)cc(F)c2F)cc1OC [Compound 28, (Z)-2-(3,4-dimethoxy-phenyl)-3-(2,3,5-trifluoro-phenyl)-acrylonitrile] | 0.011 (≈ 0.0345 µM) |

Results, then the compound that gave them:

| EC50 [µg/mL] | Compound |
| --- | --- |
| 0.3 (≈ 0.914 µM) | COc1ccc(/C(C#N)=C/c2ccc(F)c([N+](=O)[O-])c2)cc1OC [Compound 77, (Z)-2-(3,4-dimethoxy-phenyl)-3-(4-fluoro-3-nitro-phenyl)-acrylonitrile] |
| 0.019 (≈ 0.0612 µM) | COc1ccc(/C(C#N)=C/c2ccc([N+](=O)[O-])cc2)cc1OC [Compound 19, (Z)-2-(3,4-dimethoxy-phenyl)-3-(4-nitro-phenyl)-acrylonitrile] |
| 0.022 (≈ 0.073 µM) | COc1ccc(/C(C#N)=C/c2cccc(F)c2F)cc1OC [Compound 22, (Z)-3-(2,3-difluoro-phenyl)-2-(3,4-dimethoxy-phenyl)-acrylonitrile] |
| 0.15 (≈ 0.423 µM) | CCOc1ccc(/C=C(\C#N)c2ccc(OC)c(OC)c2)cc1[N+](=O)[O-] [Compound 40, (Z)-2-(3,4-dimethoxy-phenyl)-3-(4-ethoxy-3-nitro-phenyl)-acrylonitrile] |
| 0.094 (≈ 0.334 µM) | COc1ccc(/C(C#N)=C\c2ccc(O)cc2)cc1OC [Compound 50, (E)-2-(3,4-dimethoxy-phenyl)-3-(4-hydroxy-phenyl)-acrylonitrile] |
| 0.015 (≈ 0.0501 µM) | COc1ccc(/C(C#N)=C/c2cccc(F)c2O)cc1OC [Compound 55, (Z)-2-(3,4-dimethoxy-phenyl)-3-(3-fluoro-2-hydroxy-phenyl)-acrylonitrile] |
| < 0.005 | COc1ccc(/C(C#N)=C/c2ccc(F)c(F)c2)cc1OC [Compound 25, (Z)-3-(3,4-difluoro-phenyl)-2-(3,4-dimethoxy-phenyl)-acrylonitrile] |
| 0.019 (≈ 0.0612 µM) | COc1ccc(/C(C#N)=C/c2cccc([N+](=O)[O-])c2)cc1OC [Compound 33, (Z)-2-(3,4-dimethoxy-phenyl)-3-(3-nitro-phenyl)-acrylonitrile] |
| 0.37 (≈ 1.01 µM) | CCOC(=O)COc1ccc(/C=C(\C#N)c2ccc(OC)c(OC)c2)cc1 [Compound 35, ethyl [4-[(Z)-2-cyano-2-(3,4-dimethoxy-phenyl)-vinyl]-phenoxy]-acetate] |
| 0.58 (≈ 1.64 µM) | COc1ccc(/C(C#N)=C/c2cc3c(cc2[N+](=O)[O-])OCO3)cc1OC [Compound 46, (Z)-2-(3,4-dimethoxy-phenyl)-3-(6-nitro-benzo[1,3]dioxol-5-yl)-acrylonitrile] |
| 0.15 (≈ 0.498 µM) | COc1ccc(/C(C#N)=C/c2c(F)cccc2F)cc1OC [Compound 32, (Z)-3-(2,6-difluoro-phenyl)-2-(3,4-dimethoxy-phenyl)-acrylonitrile] |
| 0.2 | COc1cc(/C(C#N)=C/c2ccc(OC(C)=O)cc2)cc(OC)c1OC [Compound 65, 4-[(Z)-2-cyano-2-(3,4,5-trimethoxy-phenyl)-vinyl]-phenyl acetate] |
| 0.065 (≈ 0.134 µM) | COc1ccc(/C=C(\C#N)c2ccc(OC(=O)CCCCCCCBr)cc2)cc1OC [Compound 67, 4-[(Z)-1-cyano-2-(3,4-dimethoxy-phenyl)-vinyl]-phenyl 8-bromo-octanoate] |
| 0.028 (≈ 0.0869 µM) | COc1ccc(C(C#N)=Cc2cccc(NC(C)=O)c2)cc1OC [Compound 72, N-[3-[2-cyano-2-(3,4-dimethoxy-phenyl)-vinyl]-phenyl]-acetamide] |
| 0.015 (≈ 0.047 µM) | COc1ccc(/C(C#N)=C/c2cc(F)c(F)c(F)c2)cc1OC [Compound 31, (Z)-2-(3,4-dimethoxy-phenyl)-3-(3,4,5-trifluoro-phenyl)-acrylonitrile] |
| 0.047 (≈ 0.147 µM) | COc1ccc(/C(C#N)=C/c2ccc(F)c(F)c2F)cc1OC [Compound 27, (Z)-2-(3,4-dimethoxy-phenyl)-3-(2,3,4-trifluoro-phenyl)-acrylonitrile] |
| 0.041 | COC(=O)CCC(=O)Oc1ccc(/C=C(\C#N)c2ccc(OC)c(OC)c2)cc1 [Compound 41, 4-[(Z)-2-cyano-2-(3,4-dimethoxy-phenyl)-vinyl]-phenyl methyl succinate] |

Same assay, conditions: SN-38 resistance, concentration for 50% reduction of relative resistance value, 48 hours

| Compound | Resistance overcoming effect EC50 [µg/mL] |
| --- | --- |
| (Z)-2-(3,4-dimethoxyphenyl)-3-[4-(6-phospho-β-D-glucopyranosyl)-phenyl]-acrylonitrile sodium salt [Compound 75] | >1.0 |
| (Z)-2-(3,4-dimethoxyphenyl)-3-(4-β-maltotriosyl-phenyl)-acrylonitrile [Compound 54] | 0.26 |
| (Z)-2-(3,4-dimethoxyphenyl)-3-(4-β-maltosyl-phenyl)-acrylonitrile [Compound 51] | 0.045 |
| CCN(CC)CC.COc1ccc(/C(C#N)=C/c2ccc(OS(=O)(=O)O)cc2)cc1OC [Compound 74, sulphoric acid mono-{4-[(Z)-2-cyano-2-(3,4-dimethoxy-phenyl)-vinyl]-phenyl} ester triethylammonium salt] | >1.0 |
